Test results as given in ChEMBL document CHEMBL1158244, “A new norcembranoid dimer from the red sea soft coral Sinularia gardineri” (1996).

Key:
Format in all cases: functional
P388 = experiment: Cytotoxicity against mouse P388 cells
A549 = experiment: Cytotoxicity against human A549 cells
HT-29 = experiment: Cytotoxicity against human HT29 cells
SK-MEL-28 = experiment: Cytotoxicity against human SK-MEL-28 cells
Candida albicans = experiment: Antifungal activity against Candida albicans B311 at 1 mg/mL; settings: read-out: IZ
Cryptococcus neoformans = experiment: Antifungal activity against Cryptococcus neoformans at 1 mg/mL; settings: read-out: IZ

SMILES	Activity (P388) [µg/mL]	Activity (A549) [µg/mL]	Activity (HT-29) [µg/mL]	Activity (SK-MEL-28) [µg/mL]	zone of inhibition at 1000 µg/mL (Candida albicans) [mm]	zone of inhibition at 1000 µg/mL (Cryptococcus neoformans) [mm]
C=C(C)[C@H]1CC[C@@]23O[C@@H]2[C@@H](C[C@@]2(C)CC(=O)[C@H](CC(=O)C1)O2)OC(=O)[C@@]12CC[C@H](C(=C)C)CC(=O)C[C@H]4O[C@](C)(CC4=O)C[C@@H](OC3=O)[C@@H]1O2 [SINGARDIN]	1	2.5	5	5	3	3
CC(C)C1=C[C@@H]2[C@H](CC[C@@]2(C)O)[C@@](C)(O)CC1 [GUAIANEDIOL]	1	2.5	5	5	–	–
C[C@@H]1[C@H](O)[C@@H](C)/C=C/C=C/C=C/C=C/C=C/C=C/C=C/[C@H](O[C@@H]2O[C@H](C)[C@@H](O)[C@H](N)[C@@H]2O)C[C@@H]2O[C@](O)(C[C@@H](O)C[C@@H](O)[C@H](O)CC[C@@H](O)C[C@@H](O)CC(=O)O[C@H]1C)C[C@H](O)[C@H]2C(=O)O [AMPHOTERICIN B]	–	–	–	–	12	10
